Test results published in paper PMC6429331, “Synthesis, Molecular Docking and β-Glucuronidase Inhibitory Potential of Indole Base Oxadiazole Derivatives” (Molecules, 2019).

Columns and labels:
β-glucuronidase = molecular target: T1, β-glucuronidase (Bos taurus, UniProt A3KMY8); assay: β-Glucuronidase assay (p-nitrophenyl-β-D-glucuronide, absorbance at 405 nm); assay type: biochemical; conditions: classified into three groups from Table 1
T1 sequence (A3KMY8 24-652): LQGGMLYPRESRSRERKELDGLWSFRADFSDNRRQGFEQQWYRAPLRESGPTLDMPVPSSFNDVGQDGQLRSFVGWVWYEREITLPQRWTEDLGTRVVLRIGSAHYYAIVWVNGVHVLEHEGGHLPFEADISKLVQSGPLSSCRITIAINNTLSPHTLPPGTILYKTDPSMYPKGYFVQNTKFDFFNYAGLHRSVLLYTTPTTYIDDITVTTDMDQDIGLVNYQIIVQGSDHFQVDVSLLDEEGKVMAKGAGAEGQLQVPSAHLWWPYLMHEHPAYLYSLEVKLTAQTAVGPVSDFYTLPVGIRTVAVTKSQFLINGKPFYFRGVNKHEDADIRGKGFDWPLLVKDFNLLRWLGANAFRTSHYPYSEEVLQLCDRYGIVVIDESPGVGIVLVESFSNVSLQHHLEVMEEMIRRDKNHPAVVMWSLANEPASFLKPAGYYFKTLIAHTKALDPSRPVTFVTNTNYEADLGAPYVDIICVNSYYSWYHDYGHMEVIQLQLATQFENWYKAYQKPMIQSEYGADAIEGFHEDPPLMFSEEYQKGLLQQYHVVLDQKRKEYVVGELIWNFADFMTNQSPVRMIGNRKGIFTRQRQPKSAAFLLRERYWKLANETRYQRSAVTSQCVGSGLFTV
Protocol: β-glucuronidase activity was determined in accordance to method used by measuring absorbance at 405 nm of p-nitrophenol formed substrate by spectrophotometric method. 250 µL was the volume of total reaction. Reaction mixture containing 5 µL of test compound solution, 185 µL of 0.1M acetate buffer, and 10 µL of enzyme solution were incubated for 30 min at 37 °C. At 405 nm the plates were recorded on multiplate reader (SpectaMax plus 384) after the addition of 50 µL of 0.4mM p-nitrophenyl-β-D-glucuronide. Experiments were performed for triplicate.

Compound | activity group according to inhibitory IC50 values (β-glucuronidase) | melting point
Cc1ccc(-c2nnc(Cc3cc4ccccc4[nH]3)o2)cc1 [Compound 1, 2-((1H-indol-2-yl)methyl)-5-(p-tolyl)-1,3,4-oxadiazole] | low active group | 304 to 305 °C
Cc1ccccc1-c1nnc(Cc2cc3ccccc3[nH]2)o1 [Compound 2, 2-((1H-indol-2-yl)methyl)-5-(o-tolyl)-1,3,4-oxadiazole] | low active group | 300 to 301 °C
Oc1ccccc1-c1nnc(Cc2cc3ccccc3[nH]2)o1 [Compound 3, 2-(5-((1H-indol-2-yl)methyl)-1,3,4-oxadiazol-2-yl) phenol] |  | 314 to 315 °C
Oc1cccc(-c2nnc(Cc3cc4ccccc4[nH]3)o2)c1 [Compound 4, 3-(5-((1H-indol-2-yl)methyl)-1,3,4-oxadiazol-2-yl) phenol] | moderate active group | 311 to 312 °C
Oc1ccc(O)c(-c2nnc(Cc3cc4ccccc4[nH]3)o2)c1 [Compound 5, 2-(5-((1H-indol-2-yl)methyl)-1,3,4-oxadiazol-2-yl) benzene-1,4-diol] | moderate active group | 
Oc1cccc(-c2nnc(Cc3cc4ccccc4[nH]3)o2)c1O [Compound 6, 3-(5-((1H-indol-2-yl)methyl)-1,3,4-oxadiazol-2-yl) benzene-1,2-diol] | Highly active group | 317 to 318 °C
Oc1ccc(-c2nnc(Cc3cc4ccccc4[nH]3)o2)cc1O [Compound 7, 4-(5-((1H-indol-2-yl)methyl)-1,3,4-oxadiazol-2-yl) benzene-1,2-diol] | Highly active group | 316 to 317 °C

Further lines, results first:

activity group according to inhibitory IC50 values (β-glucuronidase) | melting point | Compound
 | 318 to 319 °C | Oc1ccc(-c2nnc(Cc3cc4ccccc4[nH]3)o2)c(O)c1 [Compound 8, 4-(5-((1H-indol-2-yl)methyl)-1,3,4-oxadiazol-2-yl) benzene-1,3-diol]
 | 307 to 308 °C | O=[N+]([O-])c1ccccc1-c1nnc(Cc2cc3ccccc3[nH]2)o1 [Compound 10, 2-((1H-indol-2-yl)methyl)-5-(2-nitrophenyl)-1,3,4-oxadiazole]
 | 303 to 304 °C | O=[N+]([O-])c1cccc(-c2nnc(Cc3cc4ccccc4[nH]3)o2)c1 [Compound 11, 2-((1H-indol-2-yl)methyl)-5-(3-nitrophenyl)-1,3,4-oxadiazole]
 | 309 to 310 °C | O=[N+]([O-])c1ccc(-c2nnc(Cc3cc4ccccc4[nH]3)o2)cc1 [Compound 12, 2-((1H-indol-2-yl)methyl)-5-(4-nitrophenyl)-1,3,4-oxadiazole]
 | 313 to 314 °C | COc1ccc(O)c(-c2nnc(Cc3cc4ccccc4[nH]3)o2)c1 [Compound 13, 2-(5-((1H-indol-2-yl)methyl)-1,3,4-oxadiazol-2-yl)-4-methoxyphenol]
 | 279 to 280 °C | c1cncc(-c2nnc(Cc3cc4ccccc4[nH]3)o2)c1 [Compound 16, 2-((1H-indol-2-yl)methyl)-5-(pyridin-3-yl)-1,3,4-oxadiazole]
 | 284 to 285 °C | c1ccc2[nH]c(Cc3nnc(-c4ccncc4)o3)cc2c1 [Compound 17, 2-((1H-indol-2-yl)methyl)-5-(pyridin-4-yl)-1,3,4-oxadiazole]
 | 294 to 295 °C | Fc1ccccc1-c1nnc(Cc2cc3ccccc3[nH]2)o1 [Compound 18, 2-((1H-indol-2-yl)methyl)-5-(2-fluorophenyl)-1,3,4-oxadiazole]
